Data: the Kinase Knowledgebase extract (Sharma et al. 2016)
Several values for one entry are separate records, joined by “and”; a condition that tells them apart may be missing. Equal entries are not always repeated.

What was measured:
Experiment in all cases: Enzyme Assay
CDK2 [1] = molecular target: CDK2 (UniProt P24941)
CDK2 [2] = molecular target: CDK2 (UniProt P24941); remark: listed apart in the source
CDK2 [3] = molecular target: CDK2 (UniProt P24941); remark: listed apart in the source

Structure (SMILES)	IC50 (CDK2 [1])	IC50 (CDK2 [2]) [nM]	IC50 (CDK2 [3])
O=c1ccc2cnc(Nc3ccc(N4CCCC(O)C4)cc3)nc2n1C1CCCC1 (configuration not stated)	44 nM	–	–
CC(C)n1c(=O)ccc2cnc(Nc3ccc(F)c(Cl)c3)nc21	140 nM	–	–
O=c1ccc2cnc(Nc3ccc4cn[nH]c4c3)nc2n1CC1CC1	260 nM	–	200 nM
O=c1ccc2cnc(Nc3cccc(OC(F)(F)C(F)F)c3)nc2n1C1CC2CCC1C2 (configuration not stated)	10000 nM	275	–
CCCn1c(=O)ccc2cnc(Nc3cc(OC)c(OC)c(OC)c3)nc21	1650 nM	–	–
O=c1ccc2cnc(Nc3ccc(N4CCCCC4)cc3)nc2n1C1CCCCC1	193 nM	66.8	–
COc1ccc(Nc2ncc3ccc(=O)n(C4CCCC4)c3n2)cc1F	75 nM	–	35 nM
CCC(CC)n1c(=O)ccc2cnc(Nc3cccc(C(F)(F)F)c3)nc21	600 nM	–	131 nM
O=c1ccc2cnc(Nc3ccc(Br)c(C(F)(F)F)c3)nc2n1C1CCCC1	220 nM	–	150 nM
O=c1ccc2cnc(Nc3ccc(N4CCC(CCO)CC4)cc3)nc2n1C1CCCCC1	30 nM	14.2	–
CCCn1c(=O)ccc2cnc(N(C)c3ccc(O)c(N4CCOCC4)c3)nc21	1100 nM	–	680 nM

More lines, now with the values ahead:

IC50 (CDK2 [1])	IC50 (CDK2 [2]) [nM]	IC50 (CDK2 [3])	Structure (SMILES)
540 nM	392	–	COc1ccc(Nc2ncc3ccc(=O)n(C(C)C)c3n2)cc1
1900 nM	284	–	O=c1ccc2cnc(Nc3ccc(N4CCCCC4)cc3)nc2n1CCCOC1CCCCO1 (configuration not stated)
2450 nM	–	820 nM	CCCn1c(=O)ccc2cnc(Nc3ccc(NC(=O)OC(C)(C)C)cc3)nc21
330 nM	–	470 nM	O=c1ccc2cnc(Nc3c(F)cc(F)cc3F)nc2n1C1CCCC1
960 nM and 1100 nM	–	240 nM and 670 nM	CCCn1c(=O)ccc2cnc(Nc3ccc(OC)c(O)c3)nc21
820 nM	–	180 nM	CCCn1c(=O)ccc2cnc(Nc3ccc(I)c(Cl)c3)nc21
350 nM	–	220 nM	Cc1cc(Nc2ncc3ccc(=O)n(C(C)C)c3n2)ccc1Cl
3780 nM	–	–	CCCCn1c(=O)ccc2cnc(Nc3cc(Cl)cc(Cl)c3)nc21
155 nM	–	–	CCC(CC)n1c(=O)ccc2cnc(Nc3ccc(F)c(C)c3)nc21
87 nM	35.7	–	O=c1ccc2cnc(Nc3ccc(-n4cccn4)cc3)nc2n1C1CCCC1
